Source: patent publication US6147097A, “Imidazole derivatives as anti-HIV agents” (Shionogi & Co., Ltd., priority 1994, dated 2000)
Values after ≈ are worked out from the molar mass of the structure shown. Like-named read-outs stand apart in the source and are kept apart here.

Legend:
[1] = cytotoxicity in MT-4 cells (MTT, culture medium in place of HIV); assay type: cell-based; details: human
How it was run: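 MT-4 cells (3.5×10^4 per well) exposed to diluted compound with culture medium added instead of HIV, 5 days at 37° C in CO2. MTT added for 1 h, formazan dissolved in Triton X-100/acidified isopropanol. OD read at 560 nm (690 nm reference) and compared with control.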

HIV (HTLV-IIIB strain) = assay: microbe, parasite or virus in culture; assay type: cell-based; details: Human immunodeficiency virus 1, IIIB, MT4, 120 h
How it was run: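 MT-4 cells (3.5×10^4 per well) were infected with HIV at 60 pfu per well in the presence of diluted compound and incubated for 5 days at 37° C. Surviving cells were then measured by MTT reduction, with the formazan dissolved in acidified isopropanol containing Triton X-100.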

[2] = biological target: T1, purified recombinant HIV-1 reverse transcriptase (Human immunodeficiency virus type 1 group M subtype B, UniProt P04585); assay: reverse transcriptase inhibition, poly(rA)/(dT) template primer, [3H]dTTP uptake; assay type: biochemical
T1 construct: purified recombinant HIV-1 reverse transcriptase; made in house; host or cells: Escherichia coli
How it was run: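 Inhibition reported as percent reduction of [3H]dTTP incorporation relative to solvent control, after 1 h at 37 °C at pH 8.3. Recombinant RT from E. coli, poly(rA) template with oligo(dT) primer, 4 μM unlabeled dTTP as substrate; product collected on DEAE filter mats.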

[3] = MT-4 cells, no virus, 37° C., 5 days, MTT, Table 3, read-out: CC50
[4] = MT-4 cells, 60 pfu HIV per well, 37° C., 5 days, MTT, Tables 1 and 2, read-out: EC50

SMILES	CC50 at 120 h [1, 3] [µg/mL]	EC50 (HIV (HTLV-IIIB strain); [4]) [µg/mL]	IC50 [2] [µM]	EC50 (HIV (HTLV-IIIB strain)) [µg/mL]	IC50 ([2]; read-out: RT IC50, pH 8.3, 37° C., 1 hour, Tables 5 and 6) [µM]	CC50 at 120 h ([1]; mt-4 cells) [µg/mL]
CCc1nc(C)n(C)c1Sc1cc(C)cc(C)c1 [Compound I-5, 1,2-dimethyl-5-(3,5-dimethylphenylthio)-4-ethylimidazole]	1 to 10 (≈ 3.84 to 38.4 µM)	0.06 (≈ 0.23 µM)	8.83			
CCn1c(COC(N)=O)nc(C(C)C)c1Sc1cccc(F)c1 [Compound I-57, 2-carbamoyloxymethyl-1-ethyl-5-(3-fluorophenylthio)-4-isopropylethyl-1H-imidazole]	25 to 50 (≈ 74.1 to 148 µM)			0.0005 to 0.001 (≈ 0.00148 to 0.00296 µM)	0.119	
CC(C)c1nc(CO)n(CCc2ccccc2)c1Sc1cc(Cl)cc(Cl)c1 [Compound I-121, 5-(3,5-dichlorophenylthio)-2-hydroxymethyl-4-isopropyl-1-(2-phenylethyl)-1H-imidazole]		0.06 (≈ 0.142 µM)	85.2			12.5 (≈ 29.7 µM)
CC(C)c1nc(COC(N)=O)n(CCCc2ccccn2)c1Sc1cc(Cl)cc(Cl)c1 [Compound I-130, 2-carbamoyloxymethyl-5-(3,5-dichlorophenylthio)-4-isopropyl-1-(3-(2-pyridyl)propyl)-1H-imidazole]		< 0.008	3.96			6.3 to 12.5 (≈ 13.1 to 26.1 µM)
CC(C)c1nc(CO)n(Cc2ccc(N)cc2)c1Sc1cc(Cl)cc(Cl)c1 [Compound 104a, 1-(p-aminobenzyl)-5-(3,5-dichlorophenylthio)-2-hydroxymethyl-4-isopropyl-1H-imidazole]		< 0.008	3.08			12.5 to 25 (≈ 29.6 to 59.2 µM)
CC(C)c1nc(CCO)n(Cc2ccc(N)cc2)c1Sc1cc(Cl)cc(Cl)c1 [Compound I-139, 1-(p-aminobenzyl)-5-(3,5-dichlorophenylthio)-2-hydroxyethyl-4-isopropyl-1H-imidazole]		< 0.008	3.67			6.3 (≈ 14.4 µM)
CC(C)c1nc(CO)n(Cc2ccc(=O)[nH]c2)c1Sc1cc(Cl)cc(Cl)c1 [Compound 116a, 5-(3,5-dichlorophenylthio)-2-hydroxymethyl-1-(6-oxo-1,6-dihydro-pyridin-3-yl)methyl-4-isopropyl-1H-imidazole]		0.004 (≈ 0.00943 µM)	3.06			30.7 (≈ 72.3 µM)
CCn1c(CCCO)nc(C(C)C)c1Sc1cc(Cl)cc(Cl)c1 [Compound 137b, 3-(5-(3,5-dichlorophenylthio)-1-ethyl-4-isopropyl-1H-imidazol-2-yl)-propan-1-ol]		0.005 to 0.01 (≈ 0.0134 to 0.0268 µM)	0.991			6.3 to 12.5 (≈ 16.9 to 33.5 µM)
CC(C)c1nc(CO)n(CCCCCc2ccccc2)c1Sc1cc(Cl)cc(Cl)c1 [Compound I-124, 5-(3,5-dichlorophenylthio)-2-hydroxymethyl-4-isopropyl-1-(5-phenylpentyl)-1H-imidazole]		0.25 (≈ 0.539 µM)	> 216			12.5 (≈ 27 µM)
CCn1c(CN)nc(C(C)C)c1Sc1ccccc1 [Compound I-75, 2-aminomethyl-1-ethyl-4-isopropyl-5-phenylthio-1H-imidazole]		0.01 (≈ 0.0363 µM)	0.799			16.5 (≈ 59.9 µM)
CCn1c(COC(N)=O)nc(C(C)C)c1Sc1cc(Cl)cc(Cl)c1 [Compound I-52, 2-carbamoyloxymethyl-5-(3,5-dichlorophenylthio)-1-ethyl-4-isopropyl-1H-imidazole]	10 (≈ 25.8 µM)		0.464	0.003 (≈ 0.00773 µM)		
CNC(=S)OCc1nc(C(C)C)c(Sc2cc(Cl)cc(Cl)c2)n1C [Compound I-44, 5-(3,5-dichlorophenylthio)-4-isopropyl-1-methyl-2-(N-methylthiocarbamoyl)oxymethyl-1H-imidazole]	1 to 10 (≈ 2.47 to 24.7 µM)	1 (≈ 2.47 µM)	107			
Cc1ncccc1Cn1c(COC(N)=O)nc(C(C)C)c1Sc1cc(Cl)cc(Cl)c1 [Compound I-133, 2-carbamoyloxymethyl-5-(3,5-dichlorophenylthio)-4-isopropyl-1-(2-methylpyridin-3-ylmethyl)-1H-imidazole]		0.008 (≈ 0.0172 µM)	72.2			12.5 (≈ 26.9 µM)
CC(C)c1nc(COC(N)=O)n(CC(F)(F)F)c1Sc1cc(Cl)cc(Cl)c1 [Compound I-55, 2-carbamoyloxymethyl-5-(3,5-dichlorophenylthio)-4-isopropyl-1-(1,1,1-trifluoroethyl)-1H-imidazole]	10 to 100 (≈ 22.6 to 226 µM)	0.008 (≈ 0.0181 µM)	5.65			
CC(=O)OCCOCc1nc(C(C)C)c(Sc2cc(Cl)cc(Cl)c2)n1C [Compound I-60, 2-{[5-(3,5-dichlorophenylthio)-4-isopropyl-1-methylimidazol-2-yl]methoxy} ethyl acetate]	12.5 to 25	≥ 0.5	> 240			
CC(C)c1nc(CNC(N)=O)n(C)c1Sc1cc(Cl)cc(Cl)c1 [Compound I-90, 5-(3,5-dichlorophenylthio)-4-isopropyl-1-methyl-2-ureidomethyl-1H-imidazole]	10 to 100 (≈ 26.8 to 268 µM)	0.13 (≈ 0.348 µM)	6.7			
